Test results as given in patent publication US8338454B2, “Nitrile derivatives and their pharmaceutical use and compositions” (Cellceutix Corporation, priority 2009, dated 2012).
pIC50: −log10 of the molar value. Where two headings read alike, the source gives them in different places.

Key:
[1] = test system: all tumor cell lines tested; test: Activity spectra, MTT assay; format: cell-based, human; conditions: read-out: average IC50 for all cell lines tested
Protocol: The indicated values are calculated as follows: log(IC50 individual cell line−IC50 average). Negative values indicate that the cell line is more sensitive than the average, whereas positive values indicate that the cell line is more resistant than the average.
(§1) The indicated values are calculated as follows: log(IC50 individual cell line−IC50 average). Negative values indicate that the cell line is more sensitive than the average, whereas positive values indicate that the cell line is more resistant than the average. […] The activity of Kevetrin was more marked than that of cisplatin toward lung, head and neck, breast, ovary, and colon cell lines.

[2] = test system: DU-145, HCT-116, or HT-29 carcinoma cells; test: Time dependence of Kevetrin cytotoxicity, MTT assay; format: cell-based, human; conditions: exposure 5 minutes to 120 hours; DU-145, HCT-116, HT-29
Protocol: Human carcinoma cells were exposed to different concentrations of Kevetrin for 5, 10, 20, 30, or 45 minutes or 1, 2, 6, 24, or 120 hours. Cellular viability expressed as IC50 was plotted verses time of Kevetrin exposure as measured using the MTT assay.
To determine the influence of exposure time on the cytotoxic effects of Kevetrin, DU-145, HCT-116, or HT-29 carcinoma cells were exposed to different concentrations of Kevetrin for 5, 10, 20, 30, or 45 minutes or 1, 2, 6, 24, or 120 hours. […] The time dependence was particularly dramatic for exposure times […]. In contrast, extending the drug exposure time beyond 24 hours had no influence on the cytotoxicity.

[3] = test system: HCT-15 human colon carcinoma with P-glycoprotein mediated resistance; test: Xenograft efficacy in nude mice; format: in vivo
Protocol: HCT-15 tumor bearing nude mice were treated with either 200 mg/kg Kevetrin IV on Days 7, 9, 11 or 22 mg/kg Taxol on Days 7, 9, 11 and 13 post tumor.

HT-29 colon carcinoma = test: Xenograft efficacy in nude mice; format: in vivo
Protocol: HT-29 tumor bearing nude mice were treated with either 200 mg/kg Kevetrin IV or 5-FU on Days 7, 9, and 11.
(§2) The cells were cultured in 10% FBS RPMI medium. The cells were obtained at passage 5 for further expansion for this efficacy study. Nude mice (Nu/Nu), both male (20 to 24 g) and female (19 to 22 g), were purchased at 6 to 8 weeks old from Charles River Laboratories. These mice were naïve at the beginning of the study and were identified by ear punching. The mice were left for five days to become acclimated to their new environment. Mice were implanted with human tumor cells in a 50:50 mix of RPMI:Matrigel subcutaneously in the right flank of each mouse. Dosing began when tumors reached an average volume of 100 mm^3.
(§3) The mice were observed daily for any adverse affects. Mice body weights were taken prior to treatment and every other day during and post treatment. If an animal became unwell, any treatment of that animal was suspended. If there was no recovery, the animal was sacrificed. […] Mice tumor size measurements were taken prior to treatment and every other day during and post treatment. The same scientist was responsible for taking the tumor measurements throughout the study.
(§4) Nude mice were implanted with 5×10^6 tumor cells in a 50:50 mix of RPMI:Matrigel subcutaneously in the right flank of each mouse. […]

SCC 15 = test: Cytotoxicity of Kevetrin, cell viability (MTT); format: cell-based; conditions: Homo sapiens; SCC 15 squamous cell carcinoma; continuous exposure for three doubling times; read-out: IC50 Concentration
Source text: (§5) The results are set forth below.

SKOV-3 = test: Cytotoxicity of Kevetrin, cell viability (MTT); format: cell-based; conditions: Homo sapiens, SK-OV-3; SKOV-3 ovarian carcinoma; continuous exposure for three doubling times; read-out: IC50 Concentration
Source text: as §5

HCT-116 = test: Cytotoxicity of Kevetrin, cell viability (MTT); format: cell-based; conditions: Homo sapiens; HCT-116 colon carcinoma; continuous exposure for three doubling times; read-out: IC50 Concentration
Source text: as §5

LnCap = test: Cytotoxicity of Kevetrin, cell viability (MTT); format: cell-based; conditions: Homo sapiens; LnCap prostate carcinoma; continuous exposure for three doubling times; read-out: IC50 Concentration
Source text: as §5

MCF-7 = test: Cytotoxicity of Kevetrin, cell viability (MTT); format: cell-based; conditions: Homo sapiens, MCF7; MCF-7 breast carcinoma; continuous exposure for three doubling times; read-out: IC50 Concentration
Source text: as §5

Colo 205 = test: Cytotoxicity of Kevetrin, cell viability (MTT); format: cell-based; conditions: Homo sapiens; Colo 205 colon carcinoma; continuous exposure for three doubling times; read-out: IC50 Concentration
Source text: as §5

SW-480 = test: Cytotoxicity of Kevetrin, cell viability (MTT); format: cell-based; conditions: Homo sapiens, SW480; SW-480 colon carcinoma; continuous exposure for three doubling times; read-out: IC50 Concentration
Source text: as §5

DU-145 = test: Cytotoxicity of Kevetrin, cell viability (MTT); format: cell-based; conditions: Homo sapiens; DU-145 prostate carcinoma; continuous exposure for three doubling times; read-out: IC50 Concentration
Source text: as §5

SCC-61 = test: Cytotoxicity of Kevetrin, cell viability (MTT); format: cell-based; conditions: Homo sapiens; SCC-61 squamous cell carcinoma; continuous exposure for three doubling times; read-out: IC50 Concentration
Source text: as §5

HT-29 = test: Cytotoxicity of Kevetrin, cell viability (MTT); format: cell-based; conditions: Homo sapiens; HT-29 colon carcinoma; continuous exposure for three doubling times; read-out: IC50 Concentration
Source text: as §5

malignant glioma cells = test: Viability of human tumor cell lines; format: cell-based
Source text: as §5

[4] = test system: A549 multi-drug resistant human lung carcinoma; test: Xenograft efficacy in nude mice; format: in vivo
Protocol: Nude mice were implanted with 5×10^6 tumor cells in a 50:50 mix of RPMI:Matrigel subcutaneously in the right flank of each mouse. Dosing began when tumors reached an average volume of 100 mm^3, usually reached by day 14 post implant, and was carried out for 8 days. […]

leukemias = test: Activity spectra, MTT assay; format: cell-based, human
Protocol: as §1

[5] = test system: head and neck cancer cell lines; test: Activity spectra, MTT assay; format: cell-based, human; conditions: three head and neck cancer cell lines
Protocol: as §1

[6] = test system: NCI-H1975 multi-drug resistant human lung carcinoma; test: Xenograft efficacy in nude mice; format: in vivo
Protocol: as §2, §3
Nude mice were implanted with 5×10^6 tumor cells in a 50:50 mix of RPMI:Matrigel subcutaneously in the right flank of each mouse. Dosing began when tumors reached an average volume of 100 mm^3, usually reached by day 14 post implant, and was carried out for 8 days. A necropsy was performed 41 days after treatment ended.
(§6) The dosing procedure began the day the mice were randomized and grouped. The dose was administered, as discussed in the following paragraph, on days 7, 9 and 11 following tumor implantation. Each dose was administered via the tail vein.
Efficacy of Kevetrin 200 mg/kg Days 7, 9, & 11 Against Taxol at 22 mg/kg on Days 7, 9, 11 & 13 in NCI-H1975 Multi-Drug Resistant Human Lung Carcinoma.
The animals were implanted subcutaneously with another multi-drug resistant human lung carcinoma and the compounds were injected IV as per the schedule. […] The tumor growth was delayed about 9 days for Taxol treated animals and about 24 days more than the untreated controls. The results are depicted in FIG. 9.

[7] = test system: MDA-MB-231 human breast carcinoma; test: Xenograft efficacy in nude mice; format: in vivo
Protocol: MDA-MB-231 human breast carcinoma bearing mice were treated with 200 mg/kg Kevetrin IV days 7, 9, and 11 compared to 22 mg/kg Taxol IV Days 7, 9, 11 and 13.
as §2, §3, §4

[8] = Weight loss due to Kevetrin in tumor bearing mice; format: in vivo
Protocol: Animal weights of mice following treatment with either 100 or 200 mg/kg Kevetrin IV on Day 0 are shown.
as §3, §6
When Kevetrin was administered intravenously (IV) to animals bearing tumors, the weight loss due to the administration of the compound was within acceptable limits. […] Both these concentrations may be used to establish the efficacy of Kevetrin.

[9] = test system: PC-3 human prostate cancer; test: Xenograft efficacy in nude mice; format: in vivo
Protocol: PC-3 tumor bearing nude mice were treated with either 200 mg/kg Kevetrin IV on Days 7, 9, 11 or 10 mg/kg cisplatin on Day 7.
as §2, §3, §4

[10] = 200 mg/kg Kevetrin IV days 7, 9, 11
[11] = Taxol 22 mg/kg IV days 7, 9, 11, 13

## Cl.N#CCCCSC(=N)N [Kevetrin, S-(3-cyanopropyl)isothiourea hydrochloride]
[1]; Homo sapiens
  pIC50: 6.31
[2]
  time dependence of cytotoxicity: Clear time-dependent cytotoxic effects
[3]; [10]
  tumor growth delay more than the Taxol treated and the untreated control: 15 days
HT-29 colon carcinoma; [10]
  tumor growth delay more than the untreated control: 33 days
HT-29 colon carcinoma; 200 mg/kg Kevetrin IV days 7, 9, 11 vs 5-FU
  tumor growth delay more than the 5-FU treated animals: 10 days
SCC 15
  IC50: 12 µg/mL
SKOV-3
  IC50: 58 µg/mL
HCT-116
  IC50: 21 µg/mL
LnCap
  IC50: 52 µg/mL
MCF-7
  IC50: 68 µg/mL
Colo 205
  IC50: 6 µg/mL
SW-480
  IC50: 62 µg/mL
DU-145
  IC50: 64 µg/mL
SCC-61
  IC50: 64 µg/mL
HT-29
  IC50: 29 µg/mL
Malignant glioma cells
  IC50: ~0.03 µg/mL
[4]; [10]
  tumor growth delay more than the untreated controls: about 26 days
leukemias
  activity toward leukemias: comparatively limited activity
[5]
  activity toward head and neck cancer cell lines: showed activity toward all of the cell lines
[6]; [10]
  tumor growth delay more than the untreated controls: about 24 days
[7]; [10]
  tumor growth delay more than the untreated control: 32 days
[7]; 200 mg/kg Kevetrin IV days 7, 9, 11 vs 22 mg/kg Taxol IV days 7, 9, 11, 13
  tumor growth delay more than the Taxol treated animals: 12 days
[8]; 100 mg/kg intravenously on days 7, 9, and 11, tumor bearing mice
  weight loss of the body weight: 6.8%
[8]; 200 mg/kg intravenously on days 7, 9, and 11, tumor bearing mice
  weight loss of the body weight: 9.3%
[9]; [10]
  tumor growth delay more than the untreated control: 34 days
[9]; 200 mg/kg Kevetrin IV days 7, 9, 11 vs 10 mg/kg Cisplatin IP day 7
  tumor growth delay more than the Cisplatin treated animals: 8 days

## CC(=O)O[C@H]1C(=O)[C@@]2(C)[C@H]([C@H](OC(=O)c3ccccc3)[C@]3(O)C[C@H](OC(=O)[C@H](O)[C@@H](NC(=O)c4ccccc4)c4ccccc4)C(C)=C1C3(C)C)[C@]1(OC(C)=O)CO[C@@H]1C[C@@H]2O [Taxol, reference compound]
[3]; [11]
  effect on the cancer (in words): little effect
[4]; [11]
  effect on the cancer (in words): no effect
[6]; [11]
  effect on the cancer (in words): limited effect
  tumor growth delay: about 9 days

## N.N.[Cl][Pt][Cl] [cisplatin, reference compound]
[1]; MTT assay, continuous exposure for three doubling times
  pIC50: 5.68
[5]
  activity toward head and neck cancer cell lines: active toward one of the three cell lines
